This passage reports Kd results from ChEMBL document CHEMBL3991601, “The target landscape of clinical kinase drugs” (Science, 2017).

In one assay the target is T1, Activin receptor type-1 (Homo sapiens, UniProt Q04771).
T1 sequence (Q04771 whole entry): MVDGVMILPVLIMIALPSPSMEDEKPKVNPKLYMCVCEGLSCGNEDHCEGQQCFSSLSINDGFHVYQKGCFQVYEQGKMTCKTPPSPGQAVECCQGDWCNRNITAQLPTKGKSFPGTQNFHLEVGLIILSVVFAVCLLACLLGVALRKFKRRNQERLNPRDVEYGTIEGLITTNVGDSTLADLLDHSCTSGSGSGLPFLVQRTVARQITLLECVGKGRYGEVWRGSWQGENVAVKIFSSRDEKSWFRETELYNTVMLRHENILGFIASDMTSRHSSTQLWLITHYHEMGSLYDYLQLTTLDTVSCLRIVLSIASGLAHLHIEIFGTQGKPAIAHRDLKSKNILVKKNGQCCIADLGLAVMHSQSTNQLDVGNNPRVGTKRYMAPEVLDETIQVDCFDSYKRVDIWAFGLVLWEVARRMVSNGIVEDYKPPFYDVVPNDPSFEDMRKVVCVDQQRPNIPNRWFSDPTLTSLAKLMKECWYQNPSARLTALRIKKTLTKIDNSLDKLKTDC

The target of assay [1] is Tyrosine-protein kinase CSK (Homo sapiens, UniProt P41240).
Tyrosine-protein kinase CSK, sequence (P41240 whole entry): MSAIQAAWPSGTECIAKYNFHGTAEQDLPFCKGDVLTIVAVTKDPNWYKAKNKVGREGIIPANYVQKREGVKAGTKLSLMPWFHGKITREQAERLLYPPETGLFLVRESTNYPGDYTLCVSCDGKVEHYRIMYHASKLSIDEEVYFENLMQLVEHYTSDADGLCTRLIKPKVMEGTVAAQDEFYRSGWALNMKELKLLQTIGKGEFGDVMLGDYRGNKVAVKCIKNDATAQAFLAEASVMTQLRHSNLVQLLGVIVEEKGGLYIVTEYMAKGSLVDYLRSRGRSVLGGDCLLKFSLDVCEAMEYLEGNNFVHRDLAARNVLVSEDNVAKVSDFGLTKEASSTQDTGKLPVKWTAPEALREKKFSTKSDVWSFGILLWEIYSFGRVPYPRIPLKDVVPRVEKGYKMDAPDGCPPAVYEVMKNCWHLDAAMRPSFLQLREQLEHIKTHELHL
Assay [2] concerns the target T2, ATP-dependent RNA helicase DDX42 (Homo sapiens, UniProt Q86XP3).
T2 sequence (Q86XP3 whole entry): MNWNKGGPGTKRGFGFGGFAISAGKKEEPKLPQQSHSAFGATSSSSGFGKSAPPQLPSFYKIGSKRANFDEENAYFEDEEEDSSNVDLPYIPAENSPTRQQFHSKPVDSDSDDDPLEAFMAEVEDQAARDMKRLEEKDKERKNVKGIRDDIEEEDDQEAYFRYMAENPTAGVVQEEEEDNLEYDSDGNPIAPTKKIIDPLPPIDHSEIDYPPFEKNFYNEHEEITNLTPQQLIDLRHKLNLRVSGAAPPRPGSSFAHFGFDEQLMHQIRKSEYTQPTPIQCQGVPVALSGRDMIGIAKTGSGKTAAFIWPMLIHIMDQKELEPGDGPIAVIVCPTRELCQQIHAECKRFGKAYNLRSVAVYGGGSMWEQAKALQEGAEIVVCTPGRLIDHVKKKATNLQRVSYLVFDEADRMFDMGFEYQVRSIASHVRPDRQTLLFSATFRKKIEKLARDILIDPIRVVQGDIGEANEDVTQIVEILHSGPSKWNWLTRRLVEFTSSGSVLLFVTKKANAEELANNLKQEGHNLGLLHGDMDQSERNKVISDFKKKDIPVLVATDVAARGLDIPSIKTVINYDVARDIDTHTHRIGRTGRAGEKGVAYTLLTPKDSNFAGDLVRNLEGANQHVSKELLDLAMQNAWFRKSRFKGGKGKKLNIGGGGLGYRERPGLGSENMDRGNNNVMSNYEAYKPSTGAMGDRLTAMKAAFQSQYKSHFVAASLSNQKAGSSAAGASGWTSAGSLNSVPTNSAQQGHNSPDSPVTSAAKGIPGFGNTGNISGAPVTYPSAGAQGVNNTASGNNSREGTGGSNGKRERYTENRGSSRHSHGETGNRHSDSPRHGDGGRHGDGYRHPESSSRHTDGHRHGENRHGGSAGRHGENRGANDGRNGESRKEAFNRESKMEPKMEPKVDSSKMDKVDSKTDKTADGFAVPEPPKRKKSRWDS

The target in assay [3] is T3, Delta(24)-sterol reductase (Homo sapiens, UniProt Q15392).
T3 sequence (Q15392 whole entry): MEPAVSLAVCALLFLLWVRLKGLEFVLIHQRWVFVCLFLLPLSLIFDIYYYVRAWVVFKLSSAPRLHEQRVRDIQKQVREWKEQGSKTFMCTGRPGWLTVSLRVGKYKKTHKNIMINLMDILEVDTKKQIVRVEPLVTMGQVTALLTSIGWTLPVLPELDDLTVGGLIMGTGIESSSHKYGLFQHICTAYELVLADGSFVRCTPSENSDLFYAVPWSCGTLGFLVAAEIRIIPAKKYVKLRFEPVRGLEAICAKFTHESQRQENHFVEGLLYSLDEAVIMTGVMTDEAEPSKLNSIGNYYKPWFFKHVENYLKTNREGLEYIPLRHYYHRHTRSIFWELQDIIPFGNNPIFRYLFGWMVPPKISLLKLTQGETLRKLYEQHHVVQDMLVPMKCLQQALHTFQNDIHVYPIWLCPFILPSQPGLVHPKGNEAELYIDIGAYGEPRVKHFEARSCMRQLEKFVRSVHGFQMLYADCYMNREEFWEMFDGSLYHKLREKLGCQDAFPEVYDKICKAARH

Assay [4] deals with Mitogen-activated protein kinase 7 (Homo sapiens, UniProt Q13164).
Mitogen-activated protein kinase 7, sequence (Q13164 whole entry): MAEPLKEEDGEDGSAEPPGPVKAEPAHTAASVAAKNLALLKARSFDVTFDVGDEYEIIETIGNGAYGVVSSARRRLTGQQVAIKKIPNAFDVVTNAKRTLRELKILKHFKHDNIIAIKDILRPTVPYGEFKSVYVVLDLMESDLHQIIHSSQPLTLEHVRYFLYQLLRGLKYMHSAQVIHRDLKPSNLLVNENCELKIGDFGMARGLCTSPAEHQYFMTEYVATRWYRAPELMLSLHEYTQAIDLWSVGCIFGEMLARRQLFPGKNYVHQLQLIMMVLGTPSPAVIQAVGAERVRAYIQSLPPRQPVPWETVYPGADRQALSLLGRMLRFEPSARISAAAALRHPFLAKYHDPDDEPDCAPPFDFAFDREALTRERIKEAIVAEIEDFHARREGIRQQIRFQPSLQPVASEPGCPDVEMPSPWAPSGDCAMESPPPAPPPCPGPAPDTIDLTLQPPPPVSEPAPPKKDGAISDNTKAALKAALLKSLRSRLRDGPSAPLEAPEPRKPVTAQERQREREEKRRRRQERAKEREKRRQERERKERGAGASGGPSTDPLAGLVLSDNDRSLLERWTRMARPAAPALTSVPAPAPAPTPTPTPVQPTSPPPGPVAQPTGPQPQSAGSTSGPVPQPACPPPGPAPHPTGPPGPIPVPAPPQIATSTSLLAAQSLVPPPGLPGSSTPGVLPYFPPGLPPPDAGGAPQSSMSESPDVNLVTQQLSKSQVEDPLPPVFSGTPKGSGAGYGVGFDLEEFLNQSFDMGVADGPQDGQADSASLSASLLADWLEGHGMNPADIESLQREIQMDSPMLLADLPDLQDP
The target in assay [5] is Receptor-interacting serine/threonine-protein kinase 2 (Homo sapiens, UniProt O43353).
Receptor-interacting serine/threonine-protein kinase 2, sequence (O43353 whole entry): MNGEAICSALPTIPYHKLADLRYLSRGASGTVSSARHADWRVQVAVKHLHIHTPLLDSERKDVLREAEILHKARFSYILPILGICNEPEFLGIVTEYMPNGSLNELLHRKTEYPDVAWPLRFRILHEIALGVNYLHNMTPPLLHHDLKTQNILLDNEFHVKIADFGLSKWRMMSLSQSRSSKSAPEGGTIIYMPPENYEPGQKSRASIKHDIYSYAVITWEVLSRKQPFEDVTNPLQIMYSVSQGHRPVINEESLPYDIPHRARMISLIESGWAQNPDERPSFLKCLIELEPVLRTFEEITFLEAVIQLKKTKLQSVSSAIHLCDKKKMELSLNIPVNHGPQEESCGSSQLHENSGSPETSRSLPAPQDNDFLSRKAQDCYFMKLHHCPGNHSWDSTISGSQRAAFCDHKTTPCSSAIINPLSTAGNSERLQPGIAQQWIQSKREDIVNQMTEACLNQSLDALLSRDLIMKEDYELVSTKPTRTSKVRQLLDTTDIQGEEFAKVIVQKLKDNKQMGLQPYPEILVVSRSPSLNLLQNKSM
In assay [6] the target is Ribosomal protein S6 kinase alpha-4 (Homo sapiens, UniProt O75676).
Ribosomal protein S6 kinase alpha-4, sequence (O75676 whole entry): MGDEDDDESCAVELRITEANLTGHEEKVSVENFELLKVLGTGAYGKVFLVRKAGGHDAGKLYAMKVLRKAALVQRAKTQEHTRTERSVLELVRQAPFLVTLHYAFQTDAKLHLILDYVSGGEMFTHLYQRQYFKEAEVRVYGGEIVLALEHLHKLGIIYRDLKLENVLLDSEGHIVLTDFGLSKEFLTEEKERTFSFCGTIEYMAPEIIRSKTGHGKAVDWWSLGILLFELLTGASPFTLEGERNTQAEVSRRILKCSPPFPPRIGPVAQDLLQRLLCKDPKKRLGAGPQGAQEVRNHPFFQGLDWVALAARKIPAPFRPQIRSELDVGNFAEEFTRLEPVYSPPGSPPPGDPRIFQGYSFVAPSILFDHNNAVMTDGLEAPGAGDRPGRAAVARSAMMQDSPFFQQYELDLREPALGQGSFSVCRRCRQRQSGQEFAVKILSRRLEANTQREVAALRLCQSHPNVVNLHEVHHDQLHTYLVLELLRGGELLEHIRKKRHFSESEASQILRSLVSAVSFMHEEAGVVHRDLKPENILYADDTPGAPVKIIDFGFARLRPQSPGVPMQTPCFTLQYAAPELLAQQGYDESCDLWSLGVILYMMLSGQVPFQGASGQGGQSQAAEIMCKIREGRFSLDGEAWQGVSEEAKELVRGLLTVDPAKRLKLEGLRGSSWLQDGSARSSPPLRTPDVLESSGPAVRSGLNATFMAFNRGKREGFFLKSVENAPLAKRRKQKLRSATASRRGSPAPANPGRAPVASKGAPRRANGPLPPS
Another assay has as its target T4, ADP/ATP translocase 2 (Homo sapiens, UniProt P05141).
T4 sequence (P05141 whole entry): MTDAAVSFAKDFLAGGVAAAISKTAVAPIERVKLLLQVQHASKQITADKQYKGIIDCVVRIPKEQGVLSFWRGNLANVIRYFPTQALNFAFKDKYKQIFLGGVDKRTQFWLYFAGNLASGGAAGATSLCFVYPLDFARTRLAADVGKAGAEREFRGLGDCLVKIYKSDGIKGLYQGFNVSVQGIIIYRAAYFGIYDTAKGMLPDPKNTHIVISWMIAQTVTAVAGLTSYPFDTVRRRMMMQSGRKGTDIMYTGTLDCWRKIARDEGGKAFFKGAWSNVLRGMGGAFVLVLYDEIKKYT

The target of assay [7] is Elongation factor Tu, mitochondrial (Homo sapiens, UniProt P49411).
Assay [8] concerns the target Tyrosine-protein kinase Fyn (Homo sapiens, UniProt P06241).
In assay [9] the target is Macrophage-stimulating protein receptor (Homo sapiens, UniProt Q04912).
Macrophage-stimulating protein receptor, sequence (Q04912 25-304 limits assumed): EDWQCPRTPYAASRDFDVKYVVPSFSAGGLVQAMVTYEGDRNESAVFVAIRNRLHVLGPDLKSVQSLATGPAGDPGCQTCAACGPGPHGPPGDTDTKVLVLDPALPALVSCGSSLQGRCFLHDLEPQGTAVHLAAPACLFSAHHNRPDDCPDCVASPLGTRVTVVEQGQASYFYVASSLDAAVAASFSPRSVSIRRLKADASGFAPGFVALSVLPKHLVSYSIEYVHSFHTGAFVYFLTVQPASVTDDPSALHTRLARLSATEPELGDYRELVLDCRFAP
Macrophage-stimulating protein receptor, sequence (Q04912 310-1400 limits assumed): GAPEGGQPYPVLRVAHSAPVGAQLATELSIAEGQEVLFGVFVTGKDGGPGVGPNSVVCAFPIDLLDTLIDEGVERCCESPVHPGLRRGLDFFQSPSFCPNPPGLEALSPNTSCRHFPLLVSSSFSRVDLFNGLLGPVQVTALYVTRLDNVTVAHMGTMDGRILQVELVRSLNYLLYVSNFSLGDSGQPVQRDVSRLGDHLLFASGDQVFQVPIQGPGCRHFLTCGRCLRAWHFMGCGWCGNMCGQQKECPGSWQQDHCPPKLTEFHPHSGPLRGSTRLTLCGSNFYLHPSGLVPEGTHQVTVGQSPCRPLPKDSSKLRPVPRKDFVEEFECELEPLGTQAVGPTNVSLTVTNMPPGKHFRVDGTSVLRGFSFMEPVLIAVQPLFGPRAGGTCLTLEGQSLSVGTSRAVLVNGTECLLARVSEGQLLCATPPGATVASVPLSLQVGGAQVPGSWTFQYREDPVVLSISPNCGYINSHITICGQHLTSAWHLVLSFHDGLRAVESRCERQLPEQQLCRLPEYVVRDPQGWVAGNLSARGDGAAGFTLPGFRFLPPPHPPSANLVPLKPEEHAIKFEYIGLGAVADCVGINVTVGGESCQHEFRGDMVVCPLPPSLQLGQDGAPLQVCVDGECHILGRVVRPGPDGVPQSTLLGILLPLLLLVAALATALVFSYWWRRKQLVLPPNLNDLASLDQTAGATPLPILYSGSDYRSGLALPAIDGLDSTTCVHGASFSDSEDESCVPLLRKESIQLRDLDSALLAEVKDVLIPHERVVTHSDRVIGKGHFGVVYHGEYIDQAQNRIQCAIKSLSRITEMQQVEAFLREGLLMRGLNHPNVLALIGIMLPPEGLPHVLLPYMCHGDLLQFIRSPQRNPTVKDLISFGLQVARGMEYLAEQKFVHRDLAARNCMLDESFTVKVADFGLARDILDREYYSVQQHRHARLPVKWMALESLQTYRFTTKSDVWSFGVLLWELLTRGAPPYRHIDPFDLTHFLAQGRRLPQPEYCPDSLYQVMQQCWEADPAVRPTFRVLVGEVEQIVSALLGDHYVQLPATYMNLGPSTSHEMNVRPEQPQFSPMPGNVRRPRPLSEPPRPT
Assay [10] addresses cAMP-dependent protein kinase catalytic subunit alpha (Homo sapiens, UniProt P17612).

Activity calls are given as the source filed them. Bounds are passed on as bounds.
Further: in the data inactive means no Kd found up to 30 µM.

Tyrosine-protein kinase Fyn, sequence (P06241 whole entry): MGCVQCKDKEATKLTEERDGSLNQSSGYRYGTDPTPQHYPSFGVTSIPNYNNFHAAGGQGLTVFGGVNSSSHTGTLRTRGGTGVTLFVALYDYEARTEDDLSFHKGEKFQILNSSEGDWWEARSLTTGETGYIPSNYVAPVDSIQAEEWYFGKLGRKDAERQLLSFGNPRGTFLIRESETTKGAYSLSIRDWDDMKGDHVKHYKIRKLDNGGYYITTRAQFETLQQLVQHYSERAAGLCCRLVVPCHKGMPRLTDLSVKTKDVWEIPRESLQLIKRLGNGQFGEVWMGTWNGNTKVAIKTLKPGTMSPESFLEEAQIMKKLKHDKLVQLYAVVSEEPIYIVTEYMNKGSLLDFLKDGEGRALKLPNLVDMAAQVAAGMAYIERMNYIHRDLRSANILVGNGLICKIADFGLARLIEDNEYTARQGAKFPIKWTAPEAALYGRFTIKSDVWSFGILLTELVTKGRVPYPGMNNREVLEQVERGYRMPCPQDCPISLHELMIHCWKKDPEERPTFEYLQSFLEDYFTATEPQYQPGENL

Regarding `Cn1c(=O)n(-c2ccc(C(C)(C)C#N)cc2)c2c3cc(-c4cnc5ccccc5c4)ccc3ncc21` [DACTOLISIB], the Kd (on Activin receptor type-1; in assay [1]; in assay [2]; in assay [3]; in [4]; in [5]) was > 30 µM (inactive) each time. For the same compound, the Kd (in assay [6]; on ADP/ATP translocase 2; in assay [7]) was > 30 µM (inactive) in each case.

For `C[C@@]1(C(=O)Nc2ccc(F)nc2)CCCN1c1nc(Nc2cc(C3CC3)n[nH]2)c2cccn2n1` [BMS-754807], the Kd (in assay [2]; in assay [3]; at ADP/ATP translocase 2; in assay [7]) was > 30 µM (inactive) in each case.

On to `O=S(=O)(c1cccc2c(O)nccc12)N1CCCNCC1` [HYDROXYFASUDIL], for which the Kd (on Activin receptor type-1; in [1]; in assay [2]; in assay [3]; in [8]; in assay [4]) was > 30 µM (inactive) in each case. In addition, the Kd (in assay [9]; in assay [5]; in [6]; at ADP/ATP translocase 2; in assay [7]) was > 30 µM (inactive) in each case.

With `CN(c1ncccc1CNc1nc(Nc2ccc3c(c2)CC(=O)N3)ncc1C(F)(F)F)S(C)(=O)=O` [PF-00562271], the Kd in assay [1], in assay [2], in [3], in assay [10], in assay [5] and in assay [6] was > 30 µM (inactive) in each case. Moreover, the Kd (on ADP/ATP translocase 2; in assay [7]) was > 30 µM (inactive) in each case.

As to `N#CCNC(=O)c1ccc(-c2ccnc(Nc3ccc(N4CCOCC4)cc3)n2)cc1` [MOMELOTINIB], the Kd (on Activin receptor type-1; in assay [1]; in assay [2]; in [3]; in [8]; in assay [4]) was > 30 µM (inactive) throughout. The Kd (in [9]; in assay [10]; in [5]; in assay [6]; on ADP/ATP translocase 2; in [7]) was > 30 µM (inactive) in each case.

Consider `COc1cc2c(Oc3ccc4[nH]c(C)cc4c3F)ncnc2cc1OCCCN1CCCC1` [CEDIRANIB], for which the Kd (in assay [2]; in assay [3]; in assay [8]; on ADP/ATP translocase 2; in assay [7]) was > 30 µM (inactive) throughout.

On to `Cn1cnc2c(F)c(Nc3ccc(Br)cc3Cl)c(C(=O)NOCCO)cc21` [SELUMETINIB], for which the Kd (in assay [2]; in assay [3]; at ADP/ATP translocase 2; in assay [7]) was > 30 µM (inactive) each time.

For the compound `COc1cc2c(N3CCN(C(=O)Nc4ccc(OC(C)C)cc4)CC3)ncnc2cc1OCCCN1CCCCC1` [TANDUTINIB], the Kd (in [2]; in assay [3]; at ADP/ATP translocase 2; in assay [7]) was > 30 µM (inactive) throughout.

As to `CCN(CCCOc1ccc2c(Nc3cc(CC(=O)Nc4cccc(F)c4)n[nH]3)ncnc2c1)CCOP(=O)(O)O` [BARASERTIB], the Kd in [1] was > 30 µM (inactive); in assay [2] it was > 30 µM (inactive); in [3], > 30 µM (inactive); in assay [4] it was > 30 µM (inactive); in [5] it was 1.85 µM (active); in assay [6] it was > 30 µM (inactive). In addition, the Kd (on ADP/ATP translocase 2; in assay [7]) was > 30 µM (inactive) in each case.

With `CC1(C)CNc2cc(NC(=O)c3cccnc3NCc3ccncc3)ccc21` [MOTESANIB], the Kd (in assay [2]; in [3]; at ADP/ATP translocase 2; in [7]) was > 30 µM (inactive) throughout.

Turning to `Cn1cc(-c2[nH]c3cc(NC(=O)[C@H](N)C4CCCCC4)cc4c3c2C=NNC4=O)cn1`, the Kd on Activin receptor type-1 was > 30 µM (inactive); in assay [1], > 30 µM (inactive); in [2] it was > 30 µM (inactive); in [3], > 30 µM (inactive); in [8], 1.34 µM (active); in assay [4], > 30 µM (inactive). Further, the Kd in assay [9] is > 30 µM (inactive); in [10], > 30 µM (inactive); in assay [5] it was > 30 µM (inactive); in [6], 1.05 µM (active); at ADP/ATP translocase 2, > 30 µM (inactive); in assay [7] it was > 30 µM (inactive).

With `C=CCn1c(=O)c2cnc(Nc3ccc(N4CCN(C)CC4)cc3)nc2n1-c1cccc(C(C)(C)O)n1` [ADAVOSERTIB], the Kd (on Activin receptor type-1; in [1]; in assay [2]; in assay [3]; in [4]; in assay [10]) was > 30 µM (inactive) each time. The Kd (in assay [5]; in assay [6]; on ADP/ATP translocase 2; in assay [7]) was > 30 µM (inactive) each time.

Turning to `CN(C)C/C=C/C(=O)Nc1cc2c(Nc3ccc(F)c(Cl)c3)ncnc2cc1O[C@H]1CCOC1` [AFATINIB], the Kd (in assay [2]; in assay [3]; on ADP/ATP translocase 2; in [7]) was > 30 µM (inactive) in each case.

On to `C[C@]1(O)C[C@@H](c2nc(-c3ccc4ccc(-c5ccccc5)nc4c3)c3c(N)nccn32)C1` [LINSITINIB], for which the Kd on Activin receptor type-1 was > 30 µM (inactive); in assay [1], > 30 µM (inactive); in [2], > 30 µM (inactive); in [3], > 30 µM (inactive); in assay [4], > 30 µM (inactive); in assay [5] it was 1.36 µM (active). Moreover, the Kd (in assay [6]; on ADP/ATP translocase 2; in assay [7]) was > 30 µM (inactive) throughout.

A word on the Kd: it is a measure of binding affinity in units of concentration.
